Test results reported in publication PMC3039689, “Identification of Small Molecule Lead Compounds for Visceral Leishmaniasis Using a Novel Ex Vivo Splenic Explant Model System” (PLoS Neglected Tropical Diseases, 2011).
Counter-ions that a name gives are not always drawn. Like-named read-outs stand apart in the source and are kept apart here.

How the values were obtained:
[1] = target: luciferase-transfected Leishmania donovani; experiment: Anti-leishmanial efficacy (EC50) in the ex vivo splenic explant model; type: cell-based
Protocol: To establish the plate assay for drug screening, the spleens from 2 infected hamsters were aseptically removed and placed in a Petri dish containing 5 mL of Collagenase D (Roche) at 2 mg/mL of buffer (10 mM Hepes pH 7.4, 150 mM NaCl, 5 mM KCl, 1 mM MgCl2, 1.8 mM CaCl2). The spleen was infiltrated by injection with approximately 2 mL of Collagenase solution, the tissue was cut into small pieces using sharp scissors, and incubated for 20 minutes at 37°C. The cell suspension and remaining tissue fragments were gently passed through a 100 µm cell strainer (B–D) to obtain a single cell suspension, which was washed twice by centrifugation (500 g for 7 min at 4°C) and re-suspended in culture medium composed of DMEM (Gibco), 5% FBS, 1 mM Sodium pyruvate (Gibco), 1X MEM amino acids solution (Sigma), 0.02% v/v/EDTA, 10 mM HEPES buffer (Cellgro) and 100 IU/mL Penicillin/100 […] Streptomycin solution (Cellgro).
The anti-leishmanial efficacy of the compounds was determined using the splenic explant model in a 96-well plate format. […] Because variation in the parasite burden between different explant cultures was expected, the concentration of cells used in each experiment was adjusted to give approximately 100 counts by luminometry (equivalent to ∼240,000 parasites). The number of surviving parasites was determined by luminometry as described above.

HepG2 cells = experiment: Cell toxicity (CC50) in the HepG2 cell line, CellTiter-Glo; type: cell-based, human
Protocol: (§1) After 24 hours of culture at 37°C the number of viable cells was determined by quantification of the ATP present in the cell using the CellTiter-Glo luminescent Cell Viability Assay (Promega).

[2] = as above; type: cell-based, human; settings: human
Protocol: as §1

[3] = ex vivo splenic explant, 48 h, luminometry, at least two experiments, compound from screened library, read-out: Ex vivo model EC50 Mean
[4] = HepG2 cell line, 24 h, ATP luminescence, compound from screened library, read-out: HepG2 CC50 Mean
[5] = 50% reduction in parasite counts in the ex vivo model, read-out: EC50 Mean (Table S2)
[6] = Leishmania donovani, 48 h, ex vivo splenic explant, 48 h, luminometry, at least two experiments, compound from screened library, read-out: Ex vivo model EC50 Mean
[7] = Leishmania donovani, 50% reduction in parasite counts in the ex vivo model, read-out: EC50 Mean (Table S2)
[8] = Leishmania donovani, ex vivo splenic explant, 48 h, luminometry, at least two experiments, compound from screened library, read-out: Ex vivo model EC50 Mean

Row | Molecule | EC50 [1, 3] [µM] | CC50 (HepG2 cells; [4]) [µM] | other results
1 | O=c1c2ccccc2sc2c(CO)ccc(NCCN3CCCCC3)c12 [Thioxanthen-9-one, 4-(hydroxymethyl)-1-[(2-piperidinoethyl)amino]-; 9H-Thioxanthen-9-one, 4-(hydroxymethyl)-1-[[2-(1-piperidinyl)ethyl]amino]-] | 9.1 | 56 | 
2 | CC[C@@H](C(=O)[C@@H](C)[C@@H](O)[C@H](C)[C@@H]1O[C@@H]([C@@H](CC)C(=O)O)CC[C@@H]1C)[C@H]1O[C@]2(C=C[C@@H](O)[C@]3(CC[C@@](C)([C@H]4CC[C@](O)(CC)[C@H](C)O4)O3)O2)[C@H](C)C[C@@H]1C [Salinomycin, Sodium] | 7.4 | 48.4 | EC50 [1, 5]: 7.44 µM
3 | CCCC(c1cc(C(C)(C)C)c(O)cc1C)c1cc(C(C)(C)C)c(O)cc1C [Sumilit BBM] | 9.4 | 71.7 | 
4 | 7-(2-(6-Ethoxy-1-methyl-1.lambda.~5~-quinolin-2-yl)vinyl)-5-methyl-8-quinolinol; Quinolinium, {6-ethoxy-2-[2-(8-hydroxy-5-methyl-7-quinolyl)vinyl]-1-methyl-} iodide | 5.7 | 46 | 
5 | CCC1=C(CC2NCCc3cc(OC)c(OC)cc32)CC2c3ccccc3CCN2C1 (centres unmarked) [2-[(6,7-dimethoxy-1,2,3,4-tetrahydroisoquinolin-1-yl)methyl]-3-ethyl-4,6,7,11b-tetrahydro-1H-pyrido[2,1-a]isoquinoline] | 8.8 | 76.2 | 
6 | C=C1C(=O)O[C@@H]2[C@H]1CC[C@H](C)[C@]1(O)C=CC(=O)[C@@]21C [Parthenicin] | 8.7 | 64.5 | 
7 | Benzalkonium Chloride | 6.4 | 38.6 | 
8 | CC(C)=CC(=O)O[C@H]1[C@H]2[C@H](OC(=O)[C@H]2C)[C@H](O)[C@@H](C)[C@@H]2C=CC(=O)[C@]21C [Fastigilin B] | 8.9 | 44.8 | 
9 | CCCCCCc1ccc(O)cc1O.Nc1c2ccccc2nc2ccccc12 [Acrisorcin] | 8 | 50.9 | 
10 | CC(C)c1ccc2c(c1)CC[C@H]1[C@](C)(CN)CCC[C@]21C [Dehydroabietylamine] | 5.8 |  | CC50 (HepG2 cells): 32.9 µM
11 | CC[C@@H](C(=O)[C@@H](C)[C@@H](O)[C@H](C)CCc1ccc(C)c(O)c1C(=O)O)[C@H]1O[C@](CC)([C@H]2CC[C@](O)(CC)[C@H](C)O2)C[C@@H]1C [Lasalocid Sodium] | 8.9 | 45.8 | 
12 | O=C1C=C2C=C[C@H]3C[C@]2(O1)[C@@H]1CCCCN13 [Virosecurinine] | 8.8 | 121 | 
13 | OC(c1cc(-c2ccccc2)nc2c1ccc1ccccc12)C1CCCCN1 (centres unmarked) [2-phenylbenzo[h]quinolin-4-yl)(2-piperidinyl)me] | 5 | 28.7 | 
14 | OC(c1cc(-c2ccc(Cl)cc2)nc2ccccc12)C1CCCCN1 (centres unmarked) [2-(4-chlorophenyl)quinolin-4-yl]-(2-piperidyl)methanol] | 6.7 | 38.4 | 
15 | c1ccc2c(c1)Sc1ccccc1N2CC1CN2CCC1CC2 (centres unmarked) [Mequitazine,10-(3-Quinuclidinylmethyl)phenothiazine] | 8.5 | 50.3 | 
16 | CCN(CC)CC(O)c1ccc2ccc3ccccc3c2c1 (stereo not drawn) [3-Phenanthrenemethanol, α-[ (diethylamino)methyl]-, hydrochloride] | 8.9 | 54.2 | 
17 | O=[As](O)(O)c1ccc(Cc2ccc([As](=O)(O)O)cc2)cc1 [4-[(4-arsonophenyl)methyl]phenyl]arsonic acid] | 6.9 | 34.5 | 

Row | Molecule | EC50 [1, 3] [µM] | CC50 (HepG2 cells; [4]) [µM] | other results
18 | c1ccc(-c2ccc(-c3ccc(C4=NCCN4)cc3)o2)cc1 [2-[4-(5-phenylfuran-2-yl)phenyl]-4,5-dihydro-1H-imidazole chloride] | 7.5 |  | CC50 (HepG2 cells): 42.9 µM
19 | CSc1ccc2c(c1)N(CCCN(C)C)c1ccccc1S2 [Thiomethylpromazine] | 13 | 83.9 | 
20 | C=C1C(=O)[C@]23[C@H](O)[C@H]1CC[C@H]2[C@@]12CO[C@]3(O)[C@@H](O)[C@@H]1C(C)(C)CC[C@@H]2O [Rubescensin A] | 11 |  | CC50 (HepG2 cells): 69.1 µM
21 | COc1ccc2c(=O)oc3c(OC)cc(CCN(C)C)c4c(=O)oc1c2c34 [Thaspine Acetate] | 2.7 | 51.4 | 
22 | CC1CC(C)(O)CC(C(O)CC2CC(=O)NC(=O)C2)C1=O (centres unmarked) [Streptovitacin A] | 3.7 | 32.4 | 
23 | CCN(CC)COC(=S)S [Diethylaminomethoxymethanedithioic acid] | 3.7 | 83.7 | 
24 | C[C@@H]1CC[C@@]2(OC1)O[C@H]1[C@@H](O)[C@H]3[C@@H]4CC[C@H]5C[C@@H](O[C@@H]6O[C@H](CO)[C@H](O[C@@H]7O[C@H](CO)[C@@H](O)[C@H](O[C@@H]8OC[C@@H](O)[C@H](O)[C@H]8O)[C@H]7O[C@@H]7O[C@H](CO)[C@H](O)[C@H](O[C@@H]8O[C@H](CO)[C@@H](O)[C@H](O)[C@H]8O)[C@H]7O)[C@H](O)[C@H]6O)[C@H](O)C[C@]5(C)[C@H]4CC[C@]3(C)[C@H]1[C@@H]2C [Digitonin] |  |  | EC50 [1, 6]: 8.2 µM; CC50 [2, 4]: 42.4 µM
25 | CC[C@@H](C(=O)O)[C@@H]1O[C@@H]([C@@H](C)[C@H](O)[C@H](C)C(=O)[C@H](CC)[C@H]2O[C@]3(C=C[C@@H](O)[C@]4(CC[C@@](C)([C@H]5CC[C@](O)(CC)[C@H](C)O5)O4)O3)[C@H](C)C[C@@H]2C)[C@@H](C)C[C@@H]1C [Narasin] |  |  | EC50 [1, 6]: 13.3 µM; EC50 [1, 7]: 13.3 µM; CC50 at 24 h [2]: 73 µM
26 | Cc1cc(C(C)(C)CC(C)(C)C)ccc1OCCOCC[N+](C)(C)Cc1ccccc1 [Methylbenzethonium Chloride] | 7.1 |  | EC50 [1, 5]: 7.06 µM; CC50 (HepG2 cells): 53.2 µM
27 | CC[n+]1c(-c2ccccc2)c2cc(N)ccc2c2ccc(N)cc21 [Homidium Bromide] |  |  | EC50 [1, 7]: 11.9 µM; EC50 [1, 8]: 11.9 µM; CC50 [2, 4]: 58.8 µM
28 | CO[C@@H]1C[C@@H](C[C@H]2CC[C@H](C)[C@H]([C@@H](C)C(=O)O)O2)O[C@]2(O[C@](C)([C@H]3CC[C@@](C)([C@@H]4O[C@@H]([C@H]5O[C@@](O)(CO)[C@H](C)C[C@@H]5C)C[C@@H]4C)O3)C[C@H]2C)[C@@H]1C [Nigericin, monosodium salt] |  |  | EC50 [1, 6]: 3.1 µM; EC50 [1, 7]: 3.13 µM; CC50 at 24 h [2]: 34.3 µM
29 | CC1=CC(C2/C(=N/O)C=C(C)CC2(C)C)C(O)C(C)(C)C1 (centres unmarked) [Cristox Oxime] | 10.9 | 140 | 
30 | Cc1cc(N2CCCCC2)nc2ccc(Cc3ccc4nc(N5CCCCC5)cc(C)c4c3)cc12 [4-methyl-6-((4-methyl-2-(1-piperidinyl)-6-quinolinyl)methyl)-2-(1-piperidinyl)quinoline] |  |  | EC50 [1, 8]: 18.4 µM; CC50 at 24 h [2]: 109 µM
31 | CN(C)CCCN1CCC2(CCC(C(C)(C)C)CC2)CC1 [3-(9-tert-butyl-3-azaspiro[5.5]undec-3-yl)-N,N-dimethyl-1-propanamine] |  |  | EC50 [1, 6]: 6.1 µM; CC50 at 24 h ([2]; HepG2 cells, HepG2 cell line, 24 h, ATP luminescence, compound from screened library, read-out: HepG2 CC50 Mean): 61.8 µM
32 | CC(C)[C@@H]1NC(=O)[C@H](C)OC(=O)[C@@H](C(C)C)NC(=O)[C@@H](C(C)C)OC(=O)[C@H](C(C)C)NC(=O)[C@H](C)OC(=O)[C@@H](C(C)C)NC(=O)[C@@H](C(C)C)OC(=O)[C@H](C(C)C)NC(=O)[C@H](C)OC(=O)[C@@H](C(C)C)NC(=O)[C@@H](C(C)C)OC1=O [Valinomycin] |  |  | EC50 [1, 8]: 0.02 µM; CC50 at 24 h [2, 4]: 10.7 µM
33 | CCCCCCCCCCC[C@@H](C[C@@H]1OC(=O)[C@H]1CCCCCC)OC(=O)[C@H](CC(C)C)NC=O [Orlistat] |  |  | EC50 [1, 6]: 24.9 µM; CC50 at 24 h [2]: 161 µM
